# Measured values: ChEMBL document CHEMBL1201862, “PubChem BioAssay data set” (2004)
# The source made the active and inactive calls.
# Experiments:
# [1] = tested on: Streptococcus sp. 'group A'; test: growth inhibition of control SK(-) GAS strain, dose response, counter-screen for streptokinase expression inhibitor project, luminescence, kanamycin, BacTiterGlo, confirmation (AID 1900); format: functional, organism-based
# Streptokinase A = molecular target: T1, Streptokinase A (Streptococcus pyogenes serotype M1, UniProt P10520); test: S. pyogenes streptokinase expression inhibitors, potency, dose response, plasminogen activation absorbance, OD405 (AID 1914); format: functional, Streptococcus pyogenes M1 GAS;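 also: secreted streptokinase activity via plasminogen activation per viability signal from cell pellet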
# T1 sequence (P10520 whole entry): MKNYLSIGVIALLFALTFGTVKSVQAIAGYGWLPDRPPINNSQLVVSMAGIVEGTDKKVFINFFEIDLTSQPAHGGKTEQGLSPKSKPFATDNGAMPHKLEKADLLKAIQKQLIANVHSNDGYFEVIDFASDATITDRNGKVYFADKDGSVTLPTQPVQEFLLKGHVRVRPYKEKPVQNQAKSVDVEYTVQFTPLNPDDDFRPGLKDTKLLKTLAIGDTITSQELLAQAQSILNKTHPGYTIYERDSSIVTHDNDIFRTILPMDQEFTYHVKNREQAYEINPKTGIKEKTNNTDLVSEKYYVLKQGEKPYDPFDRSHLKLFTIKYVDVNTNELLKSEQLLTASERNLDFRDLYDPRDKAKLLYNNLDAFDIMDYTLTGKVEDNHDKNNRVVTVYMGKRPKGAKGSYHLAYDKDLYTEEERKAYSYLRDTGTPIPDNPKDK
# Streptococcus = test: Group A Streptococcus viability loss, dose response, counter-screen for streptokinase expression inhibitor project, luminescence, BacTiterGlo (AID 1915); format: functional, organism-based;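 also: potency for reduction of bacterial viability or growth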
# [2] = molecular target: Disintegrin and metalloproteinase domain-containing protein 17 (Homo sapiens, UniProt P78536); test: ADAM17 protease inhibitors, dose response, counter-screen for ADAM10 exosite inhibitor project, biochemical, quenched FRET substrate (AID 743253)
# Chain of Disintegrin and metalloproteinase domain-containing protein 17 (P78536 whole entry, the tested form may be a part): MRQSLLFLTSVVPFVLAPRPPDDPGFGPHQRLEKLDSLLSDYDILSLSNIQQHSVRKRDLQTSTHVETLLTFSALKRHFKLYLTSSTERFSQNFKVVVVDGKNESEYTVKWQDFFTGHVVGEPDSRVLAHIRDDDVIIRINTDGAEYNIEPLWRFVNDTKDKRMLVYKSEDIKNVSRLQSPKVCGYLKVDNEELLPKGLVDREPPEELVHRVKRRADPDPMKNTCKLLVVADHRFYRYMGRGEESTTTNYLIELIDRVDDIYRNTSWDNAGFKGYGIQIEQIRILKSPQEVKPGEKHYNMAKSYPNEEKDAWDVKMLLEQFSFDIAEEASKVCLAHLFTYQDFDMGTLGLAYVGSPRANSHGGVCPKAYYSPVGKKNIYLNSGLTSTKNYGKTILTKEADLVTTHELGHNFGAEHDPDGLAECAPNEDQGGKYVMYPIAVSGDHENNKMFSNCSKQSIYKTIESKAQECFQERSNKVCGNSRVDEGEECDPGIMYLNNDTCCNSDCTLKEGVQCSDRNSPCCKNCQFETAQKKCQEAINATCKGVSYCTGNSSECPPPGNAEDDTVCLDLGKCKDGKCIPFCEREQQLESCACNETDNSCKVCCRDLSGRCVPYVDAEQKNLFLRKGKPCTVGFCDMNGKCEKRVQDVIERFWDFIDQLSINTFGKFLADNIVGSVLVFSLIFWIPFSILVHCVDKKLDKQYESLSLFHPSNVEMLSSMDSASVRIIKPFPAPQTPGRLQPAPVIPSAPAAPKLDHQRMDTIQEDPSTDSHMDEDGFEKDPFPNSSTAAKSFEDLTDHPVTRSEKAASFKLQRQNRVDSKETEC
# Transthyretin = Transthyretin (Homo sapiens, UniProt P02766); test: Luminescence-based cell-based high throughput dose response assay to identify activators of Transthyretin (TTR) transcription.; format: functional
# [3] = molecular target: T2, Methionyl-tRNA synthetase, putative (Trypanosoma brucei brucei, UniProt Q38C91); format: functional, Trypanosoma brucei brucei strain 927/4 GUTat10.1
# T2 sequence (Q38C91 whole entry): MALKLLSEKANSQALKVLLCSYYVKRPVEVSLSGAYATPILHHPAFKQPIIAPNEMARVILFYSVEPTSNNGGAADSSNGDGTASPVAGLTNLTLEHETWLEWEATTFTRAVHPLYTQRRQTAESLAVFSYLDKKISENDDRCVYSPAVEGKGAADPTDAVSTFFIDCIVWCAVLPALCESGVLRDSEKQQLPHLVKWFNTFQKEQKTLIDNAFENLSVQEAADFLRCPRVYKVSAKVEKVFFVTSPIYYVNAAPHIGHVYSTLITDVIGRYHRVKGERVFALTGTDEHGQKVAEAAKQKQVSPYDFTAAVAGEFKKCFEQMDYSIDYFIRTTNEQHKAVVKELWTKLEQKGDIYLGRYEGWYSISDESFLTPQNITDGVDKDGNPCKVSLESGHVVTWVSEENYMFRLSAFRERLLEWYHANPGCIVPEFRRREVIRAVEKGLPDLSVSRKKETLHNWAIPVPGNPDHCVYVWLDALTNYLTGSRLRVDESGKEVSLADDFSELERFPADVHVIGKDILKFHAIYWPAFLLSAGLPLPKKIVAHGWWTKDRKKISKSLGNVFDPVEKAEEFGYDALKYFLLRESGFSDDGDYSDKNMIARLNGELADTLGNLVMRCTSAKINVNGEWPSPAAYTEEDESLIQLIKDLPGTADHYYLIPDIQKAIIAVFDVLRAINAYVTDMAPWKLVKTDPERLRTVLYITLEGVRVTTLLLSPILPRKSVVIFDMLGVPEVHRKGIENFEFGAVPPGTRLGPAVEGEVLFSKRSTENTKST
# [4] = Counterscreen for inhibitors of Trypanosoma brucei methionyl tRNA synthetase (MetRS): Luminescence-based cell-based high throughput dose response assay to identify compounds that are cytotoxic to Jurkat human T lymphocyte cells.; format: functional
# [5] = molecular target: T2, Methionyl-tRNA synthetase, putative; format: functional, Trypanosoma brucei brucei strain 927/4 GUTat10.1; remark: listed apart in the source
# [6] = Late stage counterscreen for inhibitors of Trypanosoma brucei methionyl tRNA synthetase (MetRS): Luminescence-based cell-based high throughput dose response assay to identify compounds that are cytotoxic to Jurkat human T lymphocyte cells.; format: functional
# [7] = molecular target: Heat shock protein HSP 90-alpha (Homo sapiens, UniProt P07900); test: Luminescence-based dose response biochemical high throughput screening assay for inhibitors of the Heat Shock Protein 90 (HSP90). [Related pubchem assays: 1831 (Summary AID.), 1846 (Confirmation screen.), 1789 (Primary screen.)]
# Prothrombin = Prothrombin (Homo sapiens, UniProt P00734); test: Thrombin 1536 HTS Dose Response Confirmation. [Related pubchem assays: 1046 (Thrombin 1536 HTS; hits were confirmed in this assay)]; format: functional
# [8] = molecular target: T3, Corticotropin-releasing factor receptor 2/Corticotropin-releasing factor-binding protein (Homo sapiens, UniProt P24387+Q13324); test: Dose Response confirmation of uHTS hits for small molecule antagonists of the CRF-binding protein and CRF-R2 receptor complex.; format: functional; settings: read-out: IC50_Mean
# T3 sequence (Q13324 whole entry): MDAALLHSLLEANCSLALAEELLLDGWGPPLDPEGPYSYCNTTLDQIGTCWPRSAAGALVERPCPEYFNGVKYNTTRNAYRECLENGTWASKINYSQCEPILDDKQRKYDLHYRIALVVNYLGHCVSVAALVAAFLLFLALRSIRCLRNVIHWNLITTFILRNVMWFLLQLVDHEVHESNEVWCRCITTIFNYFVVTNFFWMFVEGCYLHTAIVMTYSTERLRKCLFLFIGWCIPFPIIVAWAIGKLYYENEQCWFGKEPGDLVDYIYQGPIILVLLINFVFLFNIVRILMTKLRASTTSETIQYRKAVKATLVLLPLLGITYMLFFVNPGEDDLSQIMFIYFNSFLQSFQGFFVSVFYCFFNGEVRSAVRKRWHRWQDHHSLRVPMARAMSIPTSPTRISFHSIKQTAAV
# T3 sequence (P24387 whole entry): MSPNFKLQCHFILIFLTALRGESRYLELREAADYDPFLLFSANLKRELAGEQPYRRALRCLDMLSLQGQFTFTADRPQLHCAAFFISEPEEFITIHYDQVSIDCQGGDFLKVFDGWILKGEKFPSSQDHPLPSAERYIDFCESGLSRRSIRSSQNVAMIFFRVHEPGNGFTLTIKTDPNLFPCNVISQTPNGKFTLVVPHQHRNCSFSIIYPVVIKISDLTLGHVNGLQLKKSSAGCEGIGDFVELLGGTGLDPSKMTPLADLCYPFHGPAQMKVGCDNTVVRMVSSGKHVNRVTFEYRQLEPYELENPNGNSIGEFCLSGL
# [9] = molecular target: T3, Corticotropin-releasing factor receptor 2/Corticotropin-releasing factor-binding protein; test: activators of CRF receptor 2 with binding protein – uHTS hits, confirmation (AID 602473); format: functional; settings: read-out: EC50_Mean
# [10] = CRF-BP/CRF-R2 complex antagonists, dose response, cell-based, uHTS hits, 384-well (AID 651639); format: functional, Homo sapiens; settings: read-out: IC50_Mean
# HEK293 = test: HEK293T cell cytotoxicity, dose response, cytotoxicity control, ATP luminescence, cherry-pick samples (AID 687005); format: functional, cell-based; settings: Homo sapiens;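 also: cells exposed to compound for 48 hours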
# [11] = HEK293 Cytotoxicity Assay Measured in Cell-Based System Using Plate Reader - 7071-01_Inhibitor_Dose_CherryPick_Activity_Set2.; format: functional
# Cytochrome P450 3A4 = Cytochrome P450 3A4 (Homo sapiens, UniProt P08684);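 also: CYP3A4 tested as one member of a cytochrome P450 panel screen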
# Chain of Cytochrome P450 3A4 (P08684 whole entry): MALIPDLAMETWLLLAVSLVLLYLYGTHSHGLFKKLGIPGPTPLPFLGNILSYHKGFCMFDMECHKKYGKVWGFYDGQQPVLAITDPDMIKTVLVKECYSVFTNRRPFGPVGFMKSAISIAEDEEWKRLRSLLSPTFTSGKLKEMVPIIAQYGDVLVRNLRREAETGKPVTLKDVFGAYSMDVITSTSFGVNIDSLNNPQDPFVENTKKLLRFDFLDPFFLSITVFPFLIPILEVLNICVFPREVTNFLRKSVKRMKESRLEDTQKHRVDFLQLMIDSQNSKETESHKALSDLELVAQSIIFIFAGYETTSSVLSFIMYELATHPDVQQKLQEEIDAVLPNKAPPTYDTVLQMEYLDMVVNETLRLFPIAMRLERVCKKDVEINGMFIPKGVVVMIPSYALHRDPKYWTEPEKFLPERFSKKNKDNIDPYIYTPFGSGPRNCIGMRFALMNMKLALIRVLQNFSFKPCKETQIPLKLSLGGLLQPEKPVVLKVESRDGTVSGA
# [12] = molecular target: Aryl hydrocarbon receptor (Homo sapiens, UniProt P35869); test: Luminescence-based cell-based high throughput dose response assay for activators of the Aryl Hydrocarbon Receptor (AHR). [Related pubchem assays: 2796 (Primary screen (AHR activators in singlicate)), 2845 (Confirmation screen (AHR activators in triplicate)), 434939 (Counterscreen (PXR activators in triplicate)), 2804 (Summary (AHR activators))]; format: ADME
# Chain of Aryl hydrocarbon receptor (P35869 whole entry): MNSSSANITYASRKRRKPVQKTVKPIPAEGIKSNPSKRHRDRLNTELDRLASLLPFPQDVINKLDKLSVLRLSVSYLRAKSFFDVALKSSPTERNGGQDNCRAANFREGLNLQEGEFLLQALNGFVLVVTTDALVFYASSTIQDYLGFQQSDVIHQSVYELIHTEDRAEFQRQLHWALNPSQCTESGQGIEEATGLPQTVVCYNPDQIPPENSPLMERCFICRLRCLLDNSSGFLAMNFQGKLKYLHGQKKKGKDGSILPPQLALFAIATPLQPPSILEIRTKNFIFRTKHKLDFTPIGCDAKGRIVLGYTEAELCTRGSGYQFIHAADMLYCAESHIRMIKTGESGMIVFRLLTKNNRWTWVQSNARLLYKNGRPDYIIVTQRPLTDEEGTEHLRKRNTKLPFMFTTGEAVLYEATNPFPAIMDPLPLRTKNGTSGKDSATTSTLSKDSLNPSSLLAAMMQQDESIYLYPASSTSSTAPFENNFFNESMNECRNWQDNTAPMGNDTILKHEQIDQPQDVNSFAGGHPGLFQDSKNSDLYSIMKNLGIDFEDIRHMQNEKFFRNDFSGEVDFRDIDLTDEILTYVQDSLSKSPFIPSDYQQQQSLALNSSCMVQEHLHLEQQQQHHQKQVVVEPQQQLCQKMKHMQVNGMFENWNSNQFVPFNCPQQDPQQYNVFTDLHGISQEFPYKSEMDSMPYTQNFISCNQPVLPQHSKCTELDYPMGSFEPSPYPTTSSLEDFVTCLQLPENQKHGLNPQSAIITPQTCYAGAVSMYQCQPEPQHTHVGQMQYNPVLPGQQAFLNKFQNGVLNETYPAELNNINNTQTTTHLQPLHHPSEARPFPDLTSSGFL
# [13] = microbe, parasite or virus in culture; format: functional; settings: Mycobacterium tuberculosis
# [14] = molecular target: T4, Microphthalmia-associated transcription factor (Homo sapiens, UniProt O75030); test: TRPM1 promoter luciferase signal decrease, dose response, MITF inhibitor project, cell-based, SK-MEL-5, cherry-picked, set 3 (AID 493073); format: functional
# T4 sequence (O75030 whole entry): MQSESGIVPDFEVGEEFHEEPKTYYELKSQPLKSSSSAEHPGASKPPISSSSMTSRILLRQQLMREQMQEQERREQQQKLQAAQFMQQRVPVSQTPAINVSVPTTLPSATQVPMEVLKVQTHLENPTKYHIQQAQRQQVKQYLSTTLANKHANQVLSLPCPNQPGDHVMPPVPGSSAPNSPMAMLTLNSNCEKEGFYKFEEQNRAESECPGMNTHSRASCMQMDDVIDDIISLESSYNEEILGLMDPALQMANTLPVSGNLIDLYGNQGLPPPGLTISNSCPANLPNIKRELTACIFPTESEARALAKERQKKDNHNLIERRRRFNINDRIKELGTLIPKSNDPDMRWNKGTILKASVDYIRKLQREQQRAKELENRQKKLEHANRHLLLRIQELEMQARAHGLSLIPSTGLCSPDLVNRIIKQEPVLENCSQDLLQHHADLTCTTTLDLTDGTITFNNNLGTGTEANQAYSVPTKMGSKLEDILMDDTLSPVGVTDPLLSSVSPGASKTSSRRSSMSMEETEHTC
# [15] = A549 cell cytotoxicity, dose response, cytotoxicity control, plate reader, cherry-pick, antagonist series (AID 743412); format: functional, cell-based
# [16] = HepG2 cell cytotoxicity, dose response, cytotoxicity control, plate reader, cherry-pick, antagonist series (AID 743416); format: functional, cell-based
# [17] = LGR2 antagonists, dose response, cell-based, HEK293, CRE-luciferase reporter, cherry pick, set 2 (AID 743343); format: functional;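 also: transfected cells were stimulated with diluted bursicon conditioned medium after compound addition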
# [18] = MC4R antagonists, dose response, counter-screen for LGR2 antagonist project, cell-based, plate reader, cherry pick (AID 743444); format: functional;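 also: transfected HEK 293 cells stimulated with alpha-MSH peptide; potency of inhibitors of the alpha-MSH evoked signal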
# [19] = HEK293 cell cytotoxicity, dose response, cytotoxicity control, plate reader, cherry-picked samples (AID 743446); format: functional, cell-based
smiles,measurement,setting,value
O=[N+]([O-])c1cccnc1N1CCC(c2cc(-c3ccc(Cl)cc3)[nH]n2)CC1,EC50,[1],5.14 µM (active)
same,EC50,Streptokinase A,33.3 µM (active)
same,EC50,Streptococcus,9.6 µM (active)
same,IC50,[2],> 69.5 µM (inactive)
COc1ccc(-c2noc(-c3cccs3)n2)cc1OC,EC50,Transthyretin,> 167 µM (inactive)
O=C(NCc1nc2ccccc2[nH]1)C1=C[C@@H](C2CC2)C[C@@H](OCc2ccc(CO)cc2)O1,IC50,[3],1.62 µM (active)
same,IC50,[4],83.3 µM (inactive)
same,IC50,[5],0.811 µM (active)
same,IC50,[6],> 83.3 µM (inactive)
Cc1ccc(C(=O)CSc2ccccc2C(=O)O)cc1,IC50,[7],10.8 µM (not active)
Cc1ccccc1-n1ncc2c(SCC(=O)N3c4ccccc4CC3C)ncnc21 (stereo not given),IC50,Prothrombin,> 50 µM (not active)
same,IC50,[8],11 µM (active)
same,EC50,[9],> 53 µM (inactive)
same,IC50,[10],11.7 µM (active)
same,AC50,HEK293,15.4 µM (active)
same,AC50,[11],15.4 µM (active)
same,AC50,Cytochrome P450 3A4,inconclusive
[O-][n+]1onc2c3cc(-c4ccccc4)nnc3ccc21,EC50,[12],1.48 µM (active)
CC1(C)CC(NC(=O)c2ccc(Cl)c(S(=O)(=O)N(Cc3ccccc3)c3ccccc3)c2)CC(C)(C)N1,CC50,[13],12.7 µM (active)
same,AC50,[14],10.3 µM (active)
same,AC50,[15],7.96 µM (active)
same,AC50,[16],8.14 µM (active)
same,AC50,[17],19.4 µM (active)
same,AC50,[18],29.4 µM (active)
same,AC50,[19],15.7 µM (active)
